According to patent publication US6589963B2, “Heterocyclic compounds and salts thereof and medicinal use of the same” (Kyoto Pharmaceutical Industries, Ltd., priority 1999, dated 2003):

Assays:
[1] = test system: male KK-A^y mice; assay: Hypoglycemic action (method A); assay type: in vivo, mouse; details: 4 consecutive days, non-fasting, about 24 hours after final administration, vs control group
Procedure: (§1) The glucose level in the plasma was measured using a commercially available assay kit (glucose CII-test WAKO, Wako Pure Chemical Industries, Ltd.). The mice were grouped (5 mice per group) into a control group and an administration group, such that the mean and the standard deviation of the glucose level in the plasma of each group were nearly the same. Each test compound was suspended or dissolved in 5% gum arabic solution and administered orally to the administration group for 4 consecutive days from the next day. The 5% gum arabic solution was orally administered to the control group. Blood was drawn from the tail vein under a non-fasting state about 24 hours after the final administration and the glucose level in the plasma was measured. The decrease in the plasma glucose level was calculated from the following formula.
(§2) Decrease (%) in plasma glucose level=[(mean plasma glucose level of control group−mean plasma glucose level of test compound administration group)/mean plasma glucose level of control group]×100

[2] = test system: male KK-A^y mice; assay: Hypotriglyceridemic action; assay type: in vivo, mouse; details: 4 consecutive days, non-fasting, about 24 hours after final administration, vs control group
Procedure: as §1, with “triglyceride” for “glucose”, “(triglyceride G-test” for “(glucose CII-test”
Decrease (%) in plasma triglyceride level=[(mean plasma triglyceride level of control group−mean plasma triglyceride level of test compound administration group)/mean plasma triglyceride level of control group]×100

[3] = test system: male KK-A^y mice; assay: Hypoglycemic action and hypoinsulinemic action in insulin resistant diabetic mouse; assay type: in vivo; details: 10 mg/kg orally once a day for 4 days, 24 hours after final administration, non-fasting; for Plasma glucose: control 507; for Insulin: plasma, control 43
Procedure: Blood was drawn from the tail vein of 12-week-old male KK-A^y mice under a non-fasting state, and the glucose level in the plasma was measured using a commercially available assay kit (glucose CII-test WAKO, Wako Pure Chemical Industries, Ltd.). The mice were grouped (5 mice per group) into a control group and an administration group, such that the mean glucose level in the plasma and the average body weight of each group, as well as the standard deviation thereof were nearly the same. The test compound (10 mg/kg) was suspended in 5% aqueous gum arabic solution and orally administered once a day to the administration group for 4 days from the next day. The 5% aqueous gum arabic solution was orally administered to the control group. Blood was drawn from the tail vein under a non-fasting state 24 hours after the final administration. The concentrations of plasma glucose and plasma insulin were measured.

[4] = test system: 3T3-L1 cells; assay: Triglyceride accumulation promoting action in 3T3-L1 cells; assay type: cell-based; details: 10^−7 M test compound with 10 ng/ml insulin, 4 days; relative to control
Procedure: A culture medium of 80% confluent 3T3-L1 cells was removed and the cells were dissociated with 0.25% trypsin-EDTA solution. 5% FBS-DMEM (the same amount as the removed medium) was added and the obtained cell suspension was centrifuged at 25° C., 100×g for 1 min to give cell sediment and the supernatant was removed. The cells were re-suspended in a suitable amount of 5% FBS-DMEM medium and the cells were counted. 5% FBS-DMEM medium was added to adjust the concentration to 1×10^5 cells/ml and the mixture was dispensed by 1 ml to a 24 well plate. The cells were cultured with aeration of 5% CO2 at 37° C. for 2 days. Upon confirmation of a post-confluent state, the culture supernatant was changed to a medium containing 0.5 mM-IBMX, and the cells were cultured for 2 days. Then, the medium was changed to a medium containing 10 ng/ml insulin and 10^−7 M test compound and the cells were cultured further for 4 days. After removing the culture supernatant, the cells were lysed in a 0.1% SDS solution and the triglyceride amount was measured. The triglyceride accumulation (%) due to the potentiation of insulin activity by the test compound was calculated from the following formula.
[(triglyceride amount with addition of test compound−triglyceride amount of control)/triglyceride amount of control]×100

[5] = test system: male KK-A^y mice; assay: Hypoglycemic action (method B); assay type: in vivo, mouse; details: 0.1 w/w % in powder feed for 4 days, blood at day 5, non-fasting, vs control group
Procedure: The glucose level in the plasma was measured using a commercially available assay kit (glucose CII-test WAKO, Wako Pure Chemical Industries, Ltd.). The mice were grouped (5 mice per group) into a control group and an administration group, such that the mean and the standard deviation of the glucose level in the plasma of each group were nearly the same. Each test compound was admixed in a proportion of 0.1 w/w % with a powder feed (CE-2, Clea) and the feed mixture was fed to the administration group for 4 days from the next day. A regular powder feed was fed to the control group. At day 5, blood was drawn from the tail vein under a non-fasting state and the glucose level in the plasma was measured. The decrease in the plasma glucose level was calculated from the following formula.
as §2

Compound | Decrease (%) in plasma glucose level ([1]; dose 10 mg/kg orally) | Decrease (%) in plasma glucose level ([1]; dose 30 mg/kg orally) | Decrease (%) in plasma triglyceride level ([2]; dose 10 mg/kg orally) | Decrease (%) in plasma triglyceride level ([2]; dose 30 mg/kg orally) | Plasma glucose [3] | Insulin [3] | Triglyceride accumulation (%) [4] | Decrease (%) in plasma glucose level [5]
Cc1oc(-c2ccccc2)nc1CCOc1ccc2c(c1)CN(CC(C)(C)C)[C@H](C(=O)O)C2 [Example 23, 2-(2,2-Dimethylpropyl)-7-[2-(5-methyl-2-phenyloxazol-4-yl)ethoxy]-1,2,3,4-tetrahydroisoquinoline-(3S.)-carboxylic acid] | 24.3% | 42.9% | 30.4% | 50.4% | 382 mg/dL | 28 ng/mL | 214.2% | –
Cc1oc(-c2ccccc2)nc1CCOc1ccc2c(c1)CN(Cc1ccccc1)[C@H](C(=O)O)C2 [Example 2, 2-Benzyl-7-[2-(5-methyl-2-phenyloxazol-4-yl)ethoxy]-1,2,3,4-tetrahydroisoquinoline-(3S)-carboxylic acid] | 38.3% | 60.6% | 39.5% | 54.3% | 313 mg/dL | 26 ng/mL | 260.4% | 69.2%
C=CCCN1Cc2cc(OCCc3nc(-c4ccccc4)oc3C)ccc2C[C@H]1C(=O)O [Example 42, 2-(3-Butenyl)-7-[2-(5-methyl-2-phenyloxazol-4-yl)ethoxy]-1,2,3,4-tetrahydroisoquinoline-(3S)-carboxylic acid] | 27.6% | 49.6% | – | 31.6% | 308 mg/dL | 27 ng/mL | 193.6% | –
Cc1oc(C(C)(C)C)nc1CCOc1ccc2c(c1)CN(Cc1ccccc1)[C@H](C(=O)O)C2 [Example 32, 2-Benzyl-7-[2-(5-methyl-2-tert-butyloxazol-4-yl)ethoxy]-1,2,3,4-tetrahydroisoquinoline-(3S)-carboxylic acid] | – | 36.4% | – | 32.5% | 402 mg/dL | 30 ng/mL | 181.2% | –
Cc1oc(-c2ccccc2)nc1CCOc1ccc2c(c1)CN(C(=O)c1ccccc1)[C@H](C(=O)O)C2 [Example 10, 2-Benzoyl-7-[2-(5-methyl-2-phenyloxazol-4-yl)ethoxy]-1,2,3,4-tetrahydroisoquinoline-(3S)-carboxylic acid] | – | – | – | – | – | – | – | 42.4%
